Laboratory results as given in patent US11680939B2, “Systems and methods for detecting bioactive compounds using sensors with pre-stimulated cells” (priority 2019, dated 2023).

System: sensor cells
Assay: Impedance response of a sensor with photosensitive living cells to light pulses on exposure to a cytotoxin (FIG. 9)
Type: cell-based
Settings: toxin sample vs. clean sample, optically stimulated sensor cells
From the text: FIG. 2 illustrates an exemplary behavior of sensor cells when exposed to light according to some embodiments of the present invention. Some embodiments employ sensor cells which are genetically modified to express an opsin (e.g., channel rhodopsin, without loss of generality), and/or other channel proteins with a role in maintaining cellular homeostasis (e.g., potassium channel ROMK1, without loss of generality). In the illustrated example, exposure to light induces a sudden intake of sodium ions through the cell membrane, which may substantially change the membrane potential and therefore the measured impedance of the respective cell. […]
FIGS. 4-A-B show exemplary impedance responses of a sensor to a single light pulse and to a pulse train, respectively, according to some embodiments of the present invention wherein the sensor is prepared to contain cells having optically-sensitive ion channels. As the cellular membrane potential changes in response to the light pulse(s), the change is registered in the measured impedance of the sensor. […] This observation enables some embodiments of the present invention to detect and/or quantitate the target analyte from time series of impedance measurements. […]
A step 120 acquires a target impedance time series comprising a plurality of values, at least two of which are determined at distinct moments in time. […]

SMILES: C[C@@H]1O[C@@H](O[C@H]2C[C@@H](O)[C@]3(CO)[C@H]4[C@H](O)C[C@]5(C)[C@@H](C6=CC(=O)OC6)CC[C@]5(O)[C@@H]4CC[C@]3(O)C2)[C@H](O)[C@H](O)[C@H]1O [ouabain]
- response of the sensor to exposure to a cytotoxin (impedance response, membrane repolarization after light pulses): visible modifications of cell homeostasis
